How the values were obtained:
[1] = in vivo; cited from earlier work
[2] = system: NSCLC patients; conditions: E-cad 3+ sub-group [N=26]

Nc1ccccc1NC(=O)c1ccc(CNC(=O)OCc2cccnc2)cc1 [Entinostat, N-(2-aminophenyl)-4-[N-(pyridine-3-yl)methoxycarbonylamino-methyl]-benzamide]
half-life [1]: about 100 hours

C#Cc1cccc(Nc2ncnc3cc(OCCOC)c(OCCOC)cc23)c1 [erlotinib/placebo]
overall survival [2]: 5.4 months
